Laboratory results published in US9428520B2, “Daphne genkwa extracts, and pharmaceutical composition containing fractions of the extracts or compounds separated from the extracts as active ingredients for preventing or treating atopic dermatitis” (priority 2011, dated 2016).

Legend:
atopy patients = assay: Atopy treatment effect in atopy patient; type: in vivo, human; conditions: 5 ug/ml spread on the skin, FIG. 5
Procedure: After spreading genekwadapnin or yuanhuacine on the skin of atopy patients, atopy treatment effect of the compound was confirmed.
Particularly, 5 ug/ml of genekwadapnin or yuanhuacine was spread on the skin of atopy patients, followed by observation for 5˜20 days. The treatment effect was confirmed by Medream Skin Clinic (Goejeong-dong, Seogu, Daejeon, Korea).

PKC isotype = assay: Intracellular mechanism: phosphorylation level of PKC isotype in NK92 cells (western blot); type: cell-based, human; conditions: 500 ng/ml, 12 hours, FIG. 6
Procedure: To investigate the intracellular mechanism of genekwadapnin or yuanhuacine, the NK92 cells cultured in <Example 2> were treated with genekwadapnin or yuanhuacine at the concentration of 500 ng/ml. 12 hours later, phosphorylation level of PKC isotype was investigated by using antibodies. The quantity of protein used herein was confirmed by using GAPDH.
Particularly, the cells treated with genekwadapnin or yuanhuacine were dissolved in ice by using cold SDS-lysis buffer [(50 mM HEPES, 150 mM NaCl, 0.2 mM EDTA, 0.5% NP-40, 0.1% SDS, 1 mM Na3VO4, 10 mM NaF, and complete Protein Inhibitor Cocktail (Roche)] for 30 minutes. The dissolved cell solution was spinned at the speed of 13,000 rpm for 30 minutes in a high-speed rotating machine to precipitate insoluble part and then water soluble part was separated. The separated cell aqueous solution was quantified, followed by electrophoresis using 10˜20% SDS-PAGE. Cellular protein separated on the gel was transcribed onto PVDF membrane (Millipore, Billerica, Mass., USA) at 100 V for 2 hours. To confirm PCK isotype phosphorylated in the cells, poly rabbit anti-PKD1, -phosphoPKD1 (Ser916), -phosphoPKDl (Ser744/748), -phosphoPKCα/βII, -phosphoPKCδ, -phosphoPKCθ, and -phosphoPKCζ/λ IgG (Cell signaling Technology, USA) (1:1000) were used as primary antibodies. As a secondary antibody, horseradish peroxidase peroxidase-conjugated goat anti-rabbit IgG (Santa Cruz Biotechnology, USA) (1:3000) was treated at room temperature for 60 minutes. To confirm the equal amount of cellular protein, poly rabbit anti-GAPDH IgG (Santa Cruz Biotechnology, Pasadena, Calif., USA) was used.

Balb/C mouse = assay: Atopy treatment effect in DNCB atopy induced mouse model; type: in vivo; conditions: score 10˜13 group with severe atopic symptoms, FIG. 4
Procedure: DNCB, one of allergens, was spread on the shaved skin of a normal Balb/C mouse to induce atopy intentionally. Atopy symptoms varied from the dose of DNCB and the treatment period, which were classified into different score groups (score 4˜8 group and score 10˜13 group). In the mouse group (score 4˜8 group) which was treated with a lower dose of DNCB, atopic skin was recovered to normal skin within 24 hours from the treatment of genekwadapnin or yuanhuacine. […] At that time, the test was performed in duplicate with 10 mice each.

A549 cells = assay: RT-PCR of cytokine mRNA levels in A549 cells; type: cell-based, human; conditions: 2 ng, FIG. 2A
Procedure: (§1) Human cell lines (A549, NK92, muDC, Jurkat) were cultured in a 37° C., 5% CO2 humidified incubator.
(§2) RT-PCR was performed to investigate the changes of mRNA levels in relation to the inducement of IFN-γ, IL-2, and IL-12 in A549, NK92, muDC, and Jurkat cells cultured in <Example 2>. These cells were cultured in the presence of 2 ng of genekwadapnin or yuanhuacine for 12 hours.
(§3) Phase II RT-PCR was performed with oligo-dT primer, reverse transcriptase, specific primer set, and Taq polymerase (Takara, Shiga, Japan). Total RNA was isolated according to the standard protocol. cDNA was synthesized by using Accusript High Fidelity 1st Strand cDNA Synthesis Kit (Stratagene) according to the manufacturer's instruction. 1 μl of the synthesized cDNA was used for PCR with 20 μl of reaction mixture containing 0.5 U ExTaq DNA polymerase, 1× buffer, 1 mM dNTP mix (Takara) and specific primer set. PCR amplification was performed using GeneAmp PCR system 2700 (Applied Biosystems, Foster city, CA, USA) as follows: predenaturation at 94° C. for 5 minutes, denaturation at 94° C. for 45 seconds, annealing at 56° C. for 45 seconds, polymerization at 72° C. for 1 minute, 25˜40 cycles from denaturation to polymerization, and final extension at 72° C. for 7 minutes. PCR primers shown in [Table 1] were designed by using Primer 3 program, which were purchased from Bioneer (Daejeon, Korea). At this time, GAPDH was used as the internal control.
(§4) The PCR product was electrophoresed on 1.5% agarose gel, which was stained with ethidium bromide (EtBr) and then visualized by using Gel Doc 2000 UV trans-illuminator (Bio-Rad Laboratories, Hercules, Calif., […]). Analysis was performed with Quantity One software (Bio-Rad Laboratories).

NC mouse = assay: Atopy treatment effect in NC mouse model; type: in vivo; conditions: local spreading on skin, FIG. 3
Description: NC mouse is the mouse showing typical atopy symptom when it is raised in the conventional space. Genekwadapnin or yuanhuacine was spread locally on NC mouse starting to show atopy symptom, followed by observation of changes of atopy symptom.

NK92 cells = assay: RT-PCR of cytokine mRNA levels in NK92 cells; type: cell-based, human; conditions: 2 ng, FIG. 2A
Procedure: as §1
Particularly, NK92 (human NK lymphoma), the IL-2 dependent NK cell line, was purchased from ATCC (American Type Culture Collection). The NK92 cell line was maintained in α-MEM (Life Technologies, Karlsruhe, Germany) supplemented with 20% FCS (HyClone, Logan, Utah), 2 mM […], 100 μg/ml penicillin, 100 μg/ml streptomycin (Life Technologies) and 100 U/ml IL-2 (Chiron, Emeryville, Calif.).
as §2
as §3, with “At this time, GAPDH was used as the internal control.” left out
as §4

[1] = NK92 cells (printed NR92), 12 hours after treatment

## C=C(C)[C@@]12OC3(/C=C/C=C/CCCCC)O[C@@H]1[C@@H]1[C@@H]4O[C@]4(CO)[C@@H](O)[C@]4(O)C(=O)C(C)=C[C@H]4[C@@]1(O3)[C@H](C)[C@H]2OC(=O)c1ccccc1 [yuanhuacine]
Atopy patients; minor symptoms
  time until atopic skin was recovered to normal: 5 days
Atopy patients; severe symptoms
  time until atopic skin was recovered to normal: 20 days
PKC isotype
  PKD1 level: not changed
  phosphorylation of other types of PKC isotype: not phosphorylated
  phosphorylation of serin residues (744th/748th, and 916th sites of PKD1 protein): confirmed
Balb/C mouse
  speed of recovery versus the control group: at least two times faster
A549 cells; 12 hours after treatment
  transcript of type II cytokine, IL-4: not induced
  transcripts of Type I cytokines, IFN-γ, IL-2, and IL-12: significantly increased
A549 cells; 12 hours
  transcripts of IL-15 and IL-18: not controlled
NC mouse
  atopy symptom on the back where the compound was spread: significantly reduced
  skin biopsy: distribution of inflammatory cells, phenotype of the treated area: almost normal phenotype
NK92 cells; [1]
  transcript of type II cytokine, IL-4: not induced
  transcripts of Type I cytokines, IFN-γ, IL-2, and IL-12: significantly increased
NK92 cells; NK92 cells, 12 hours
  transcripts of IL-15 and IL-18: not controlled
